According to patent publication US4218436A, “Compounds and methods” (The Upjohn Company, priority 1979, dated 1980):

Legend:
[1] = test system: antiserum raised against 9-deoxy-9-methylene PGF2 (KLH Conjugate); assay: RIA cross-reactivity, displacement of [^3 H] PGE2 from antiserum (KLH Conjugate); type: binding, rabbit; details: relative to PGE2; ng. required to displace 50% of [^3 H] PGE2
Protocol: (§1) Five milligrams of KLH-PGE2 mimic conjugate is added to 2.25 ml. of sterile saline (0.9%) and 2.25 ml. of Freund's complete adjuvant and blended. 1.0 ml. of this mixture is injected subcutaneously at 20-30 sites on the flanks of four Albino New Zealand rabbits of 2-4 kg. mass. Each rabbit receives a dose of about 1 mg. On the same day, 1.0 ml. of attenuated pertussis vaccine is injected intramuscularly at four sites on the hindquarters of each rabbit.
(§2) A known amount of PGE-type compound in 0.1 ml. PBSG buffer at pH 7.4±0.2 and 0.1 ml. of the radiolabeled form of the same PGE-type compound (10,000 cpm/0.1 ml. PBSG) are introduced into a 12×75 mm. polypropylene tube. Antiserum (0.1 ml.) against the corresponding mimic is added at a dilution which will bind 50%±3% of the radiolabeled authentic PGE-type compound in the absence of competition from the unlabeled PGE-type compound. The tube is incubated for 1 hour at 25° and then 12-16 hours at 4°. Antibody bound and free fractions are separated with dextran-coated charcoal. Other separation techniques are acceptable.
(§3) The data below show the cross-reactivity of antiserum raised against 9-deoxy-9-methylene PGF2 to various PGE-type compounds, relative to PGE2. Percent crossreaction is defined as (ng. of PGE2 required to displace 50% of [^3 H] PGE2)/(ng. heterologous PG required to displace 50% of [^3 H] PGE2)×100.

[2] = test system: antiserum raised against 9-deoxy-9-methylene PGF2 (BSA Conjugate); assay: RIA cross-reactivity, displacement of [^3 H] PGE2 from antiserum (BSA Conjugate); type: binding, rabbit; details: relative to PGE2; ng. required to displace 50% of [^3 H] PGE2
Protocol: as §1, §2, §3

## CCCCC[C@H](O)/C=C/[C@@H]1[C@@H](CCCCCCC(=O)O)[C@@H](O)C[C@H]1O [PGF1 α]
[1]
  % Cross-Reaction KLH Conjugate: 0.09%
[2]
  % Cross-Reaction BSA Conjugate: 2.9%
